Read-outs that look alike come from different tables or passages of the source.
Tested on: HIV-1 (IIIB) in MT-4 cells
Experiment: MT-4 HIV assay
Type: cell-based
Conditions: Human immunodeficiency virus 1, MT4, 120 h
Method: Compounds were tested in a high-throughput 384-well assay format for their ability to inhibit the replication of HIV-1 (IIIB) in MT-4 cells. Compounds were serially diluted (1:3) in DMSO on 384-well polypropylene plates and further diluted 200-fold into complete RPMI media (10% FBS, 1% P/S) using the Biotek Micro Flow and Agilent ECHO acoustic dispenser. Each plate contained up to 8 test compounds, with negative (No Drug Control) and 5 uM AZT positive controls. MT-4 cells were pre-infected with 10 uL of either RPMI (mock-infected) or a fresh 1:250 dilution of an HIV-1 (IIIB) concentrated virus stock. Infected and uninfected MT-4 cells were further diluted in complete RPMI media and added to each plate using a Micro Flow dispenser. After 5 days incubation in a humidified and temperature controlled incubator (37° C.), Cell Titer Glo (Promega) was added to the assay plates to quantify the amount of luciferase.

[1] = HIV-1 (IIIB), MT-4 cells, 5 days, Cell Titer Glo, read-out: EC50

SMILES	EC50 [1] [nM]	EC50 [nM]
COC(=O)N[C@H](C(=O)N[C@@H](Cc1ccc(C#Cc2ccc(N3CC4CCC(C3)N4CC(F)F)nc2)cc1)[C@@H](O)CN(Cc1c(F)cc(-c2ccccn2)cc1Cl)NC(=O)[C@@H](NC(=O)OC)C(C)(C)CF)C(C)(C)CF [Example 238, methyl ((5S,8S,9S,14S)-11-(2-chloro-6-fluoro-4-(pyridin-2-yl)benzyl)-8-(4-((6-(8-(2,2-difluoroethyl)-3,8-diazabicyclo[3.2.1]octan-3-yl)pyridin-3-yl)ethynyl)benzyl)-16-fluoro-5-(1-fluoro-2-methylpropan-2-yl)-9-hydroxy-15,15-dimethyl-3,6,13-trioxo-2-oxa-4,7,11,12-tetraazahexadecan-14-yl)carbamate]	12.3	–
COC(=O)N[C@H](C(=O)N[C@@H](Cc1ccc(C#Cc2ccc(N3CC4CCC(C3)N4C)nc2)cc1)[C@@H](O)CN(Cc1c(F)cc(-c2ccccn2)cc1F)NC(=O)[C@@H](NC(=O)OC)C(C)(C)C(F)(F)F)C(C)(C)C(F)(F)F [Example 242, methyl ((5S,8S,9S,14S)-11-(2,6-difluoro-4-(pyridin-2-yl)benzyl)-16,16,16-trifluoro-9-hydroxy-15,15-dimethyl-8-(4-((6-(8-methyl-3,8-diazabicyclo[3.2.1]octan-3-yl)pyridin-3-yl)ethynyl)benzyl)-3,6,13-trioxo-5-(1,1,1-trifluoro-2-methylpropan-2-yl)-2-oxa-4,7,11,12-tetraazahexadecan-14-yl)carbamate]	3.45	–
COC(=O)N[C@H](C(=O)N[C@H](C(=O)N[C@@H](Cc1ccc(C#Cc2cnc(N3CC4CC(C3)N4C3COC3)nc2)cc1)[C@@H](O)CN(Cc1c(F)cc(-c2ccn(CC(F)F)n2)cc1F)NC(=O)[C@@H](NC(=O)OC)C(C)(C)C)C(C)(C)C)C(C)C [Example 222, Methyl ((5S,8S,11S,12S,17S)-8-(tert-butyl)-14-(4-(1-(2,2-difluoroethyl)-1H-pyrazol-3-yl)-2,6-difluorobenzyl)-12-hydroxy-5-isopropyl-18,18-dimethyl-11-(4-((2-(6-(oxetan-3-yl)-3,6-diazabicyclo[3.1.1]heptan-3-yl)pyrimidin-5-yl)ethynyl)benzyl)-3,6,9,16-tetraoxo-2-oxa-4,7,10,14,15-pentaazanonadecane-17-yl)carbamate]	–	12.9
COC(=O)N[C@H](C(=O)NN(Cc1c(F)cc(-c2ncccn2)cc1F)C[C@H](O)[C@H](Cc1ccc(C#Cc2ccc(N3CC4CCC(C3)N4C3COC3)nc2)cc1)NC(=O)[C@@H](NC(=O)OC)C(C)(C)C(F)(F)F)C(C)(C)C [Example 96, Methyl ((5S,8S,9S,14S)-11-(2,6-difluoro-4-(pyrimidin-2-yl)benzyl)-9-hydroxy-15,15-dimethyl-8-(4-((6-(8-(oxetan-3-yl)-3,8-diazabicyclo[3.2.1]octan-3-yl)pyridin-3-yl)ethynyl)benzyl)-3,6,13-trioxo-5-(1,1,1-trifluoro-2-methylpropan-2-yl)-2-oxa-4,7,11,12-tetraazahexadecan-14-yl)carbamate]	2.33	–
COC(=O)N[C@H](C(=O)N[C@@H](Cc1ccc(C#Cc2ccc(N3CC4CC(C3)N4C3COC3)nc2)cc1)[C@@H](O)CN(Cc1c(F)cc(-c2ccn(CC(F)F)n2)cc1F)NC(=O)[C@@H](NC(=O)OC)C(C)(C)C(F)(F)F)C(C)(C)C(F)(F)F [Example 41, Methyl ((5S,8S,9S,14S)-11-(4-(1-(2,2-difluoroethyl)-1H-pyrazol-3-yl)-2,6-difluorobenzyl)-16,16,16-trifluoro-9-hydroxy-15,15-dimethyl-8-(4-((6-(6-(oxetan-3-yl)-3,6-diazabicyclo[3.1.1]heptan-3-yl)pyridin-3-yl)ethynyl)benzyl)-3,6,13-trioxo-5-(1,1,1-trifluoro-2-methylpropan-2-yl)-2-oxa-4,7,11,12-tetraazahexadecan-14-yl)carbamate]	3.58	–
COC(=O)N[C@H](C(=O)N[C@@H](Cc1ccc(C#Cc2ccc(N3CC4(C)CN(C5COC5)CC(C)(C3)C4=O)nc2)cc1)[C@@H](O)CN(Cc1c(F)cc(-c2cnn(C(F)F)c2)cc1F)NC(=O)[C@@H](NC(=O)OC)C(C)(C)C(F)(F)F)C(C)(C)C(F)(F)F [Example 62, Methyl ((5S,8S,9S,14S)-11-(4-(1-(difluoromethyl)-1H-pyrazol-4-yl)-2,6-difluorobenzyl)-8-(4-((6-(1,5-dimethyl-7-(oxetan-3-yl)-9-oxo-3,7-diazabicyclo[3.3.1]nonan-3-yl)pyridin-3-yl)ethynyl)benzyl)-16,16,16-trifluoro-9-hydroxy-15,15-dimethyl-3,6,13-trioxo-5-(1,1,1-trifluoro-2-methylpropan-2-yl)-2-oxa-4,7,11,12-tetraazahexadecan-14-yl)carbamate]	–	8.83
COC(=O)N[C@H](C(=O)N[C@@H](Cc1ccc(C#Cc2ccc(N3CCN4CCOC[C@H]4C3)nc2)cc1)[C@@H](O)CN(Cc1c(F)cc(-c2cc(F)ccn2)cc1F)NC(=O)[C@@H](NC(=O)OC)C(C)(C)C(F)(F)F)C(C)(C)C(F)(F)F [Example 137, Methyl ((5S,8S,9S,14S)-11-(2,6-difluoro-4-(4-fluoropyridin-2-yl)benzyl)-16,16,16-trifluoro-8-(4-((6-((R)-hexahydropyrazino[2,1-c][1,4]oxazin-8(1H)-yl)pyridin-3-yl)ethynyl)benzyl)-9-hydroxy-15,15-dimethyl-3,6,13-trioxo-5-(1,1,1-trifluoro-2-methylpropan-2-yl)-2-oxa-4,7,11,12-tetraazahexadecan-14-yl)carbamate]	3.31	–
COC(=O)N[C@H](C(=O)N[C@@H](Cc1ccc(C#Cc2ccc(N3CC4CCC(C3)N4CC3(C)COC3)nc2)cc1)[C@@H](O)CN(Cc1c(F)cc(-c2cnn(C(F)F)c2)cc1F)NC(=O)[C@@H](NC(=O)OC)C(C)(C)C(F)(F)F)C(C)(C)C(F)(F)F [Example 108, Methyl ((5S,8S,9S,14S)-11-(4-(1-(difluoromethyl)-1H-pyrazol-4-yl)-2,6-difluorobenzyl)-16,16,16-trifluoro-9-hydroxy-15,15-dimethyl-8-(4-((6-(8-((3-methyloxetan-3-yl)methyl)-3,8-diazabicyclo[3.2.1]octan-3-yl)pyridin-3-yl)ethynyl)benzyl)-3,6,13-trioxo-5-(1,1,1-trifluoro-2-methylpropan-2-yl)-2-oxa-4,7,11,12-tetraazahexadecan-14-yl)carbamate]	7.23	–
COC(=O)N[C@H](C(=O)N[C@@H](Cc1ccc(C#Cc2ccc(N3C[C@H]4C[C@@H]3CN4C3COC3)nc2)cc1)[C@@H](O)CN(Cc1c(F)cc(-c2nnc(C3CC3)s2)cc1F)NC(=O)[C@@H](NC(=O)OC)C(C)(C)C(F)(F)F)C(C)(C)C(F)(F)F [Example 27, Methyl ((5S,8S,9S,14S)-11-(4-(5-cyclopropyl-1,3,4-thiadiazol-2-yl)-2,6-difluorobenzyl)-16,16,16-trifluoro-9-hydroxy-15,15-dimethyl-8-(4-((6-((1R,4R)-5-(oxetan-3-yl)-2,5-diazabicyclo[2.2.1]heptan-2-yl)pyridin-3-yl)ethynyl)benzyl)-3,6,13-trioxo-5-(1,1,1-trifluoro-2-methylpropan-2-yl)-2-oxa-4,7,11,12-tetraazahexadecan-14-yl)carbamate]	–	3.5
COC(=O)N[C@H](C(=O)N[C@@H](Cc1ccc(C#Cc2cnc(N3C[C@H]4C[C@@H]3CN4C3COC3)nc2)cc1)[C@@H](O)CN(Cc1ccc(-c2ccn(C3CC3)n2)cc1)NC(=O)[C@@H](NC(=O)OC)C(C)(C)C(F)(F)F)C(C)(C)C(F)(F)F [Example 30, methyl ((5S,8S,9S,14S)-11-(4-(1-cyclopropyl-1H-pyrazol-3-yl)benzyl)-16,16,16-trifluoro-9-hydroxy-15,15-dimethyl-8-(4-((2-((1R,4R)-5-(oxetan-3-yl)-2,5-diazabicyclo[2.2.1]heptan-2-yl)pyrimidin-5-yl)ethynyl)benzyl)-3,6,13-trioxo-5-(1,1,1-trifluoro-2-methylpropan-2-yl)-2-oxa-4,7,11,12-tetraazahexadecan-14-yl)carbamate]	4.44	–
COC(=O)N[C@H](C(=O)N[C@@H](Cc1ccc(C#Cc2ccc(N3CC4CC(C3)N4C3COC3)nc2)cc1)[C@@H](O)CN(Cc1c(F)cc(-c2ccc(N3CC4CC(C3)N4C3COC3)nc2)cc1F)NC(=O)[C@@H](NC(=O)OC)C(C)(C)C(F)(F)F)C(C)(C)C(F)(F)F [Example 38, Methyl ((5S,8S,9S,14S)-11-(2,6-difluoro-4-(6-(6-(oxetan-3-yl)-3,6-diazabicyclo[3.1.1]heptan-3-yl)pyridin-3-yl)benzyl)-16,16,16-trifluoro-9-hydroxy-15,15-dimethyl-8-(4-((6-(6-(oxetan-3-yl)-3,6-diazabicyclo[3.1.1]heptan-3-yl)pyridin-3-yl)ethynyl)benzyl)-3,6,13-trioxo-5-(1,1,1-trifluoro-2-methylpropan-2-yl)-2-oxa-4,7,11,12-tetraazahexadecan-14-yl)carbamate]	6.13	–
COC(=O)N[C@H](C(=O)N[C@@H](Cc1ccc(C#Cc2ccc(N3CCN4CCOC[C@@H]4C3)nc2)cc1)[C@@H](O)CN(Cc1c(F)cc(-c2ccn(C(F)F)n2)cc1F)NC(=O)[C@@H](NC(=O)OC)C(C)(C)C(F)(F)F)C(C)(C)C(F)(F)F [Example 55, Methyl ((5S,8S,9S,14S)-11-(4-(1-(difluoromethyl)-1H-pyrazol-3-yl)-2,6-difluorobenzyl)-16,16,16-trifluoro-8-(4-((6-((S)-hexahydropyrazino[2,1-c][1,4]oxazin-8(1H)-yl)pyridin-3-yl)ethynyl)benzyl)-9-hydroxy-15,15-dimethyl-3,6,13-trioxo-5-(1,1,1-trifluoro-2-methylpropan-2-yl)-2-oxa-4,7,11,12-tetraazahexadecan-14-yl)carbamate]	4.44	–
